These results are taken from patent publication US5093371A, “Naphthyl ketone inhibitors of cholesterol esterase and their use as hypolipidemic and hypocaloric agents” (University of Iowa Research Foundation, priority 1990, dated 1992).

By Ki is commonly meant the dissociation constant of the complex between target and ligand, obtained from inhibition or displacement. What is called Km is the substrate concentration at which the rate is half of its maximum.

The target in this experiment is Cholesterol esterase (CEase). Put plainly: Inhibition of CEase-catalyzed hydrolysis of p-nitrophenylbutyrate (PNPB). It counts as biochemical. The note with it: for Ki: 25.0±0.1 C, pH 7.3, 0.1 M sodium phosphate, 1 mM Triton X100, substrate PNPB, read-out: Ki (inhibition constants for difluoroketone inhibitors of cholesterol esterase). The procedure: The CEase-catalyzed hydrolysis of the water-soluble substrate p-nitrophenylbutyrate (PNPB) is a reaction that is routinely used to characterize inhibitors. The reaction is followed at 25.0±0.1.C and pH 7.3 in 0.1 M sodium phosphate buffer that contains 0.1 N NaC1 , 1 mM Triton X100, and the appropriate concentrations of CEase and PNPB. Inhibitor characterization occurs in two stages: (a) the form of the inhibition is determined by fitting substrate timecourse data to the integrated form of the Michaelis-Menten equation by nonlinear-least squares methods: [formula] Reactions are run in the absence and presence of inhibitor. Lineweaver-Burk plots of the data are constructed, as shown in FIG. 1 for inhibition by iododifluoromethyl 2-naphthyl ketone. (b) The dissociation constant of the CEase-inhibitor complex, Ki, is determined by one of two methods. In the first (Method A), […] is calculated from a replot of the apparent Km values (determined by fitting timecourses to equation (1)) versus inhibitor concentration. The replot is described by equation 2: [formula] […] In the second approach (Method B), initial velocity (Vi) versus inhibitor concentration data are fit by nonlinear-least squares to equation 3: [formula] […] The apparent Ki is then used to calculate the actual Ki from equation 4:
Ki =Ki^app /(1+[S]/Km) (4)
In equation 4 [S] is the concentration of the substrate PNPB and Km, the Michaelis constant for CEase-catalyzed hydrolysis of PNPB, is 0.09 mM.

SMILES strings stand for the structures.

In the case of `O=C(c1ccc2ccccc2c1)C(F)(F)Cl` [Compound 1, Chlorodifluoromethyl 2-Naphthyl Ketone], the Ki was 2000 nM.
The same measure, in the same setting: in the case of `COc1ccc2cc(C(=O)C(F)(F)Cl)ccc2c1` [Compound 2, Chlorodifluoromethyl 2-(6-Methoxy)naphthyl Ketone] it was 6000 nM; in that of `O=C(c1ccc2ccccc2c1)C(F)(F)I` [Compound 3, Iododifluoromethyl 2-Naphthyl Ketone], 800 nM.
Still for that read-out and setting: the value for `CCCCC(F)(F)C(=O)c1ccc2ccccc2c1` [Compound 4, 1,1-Difluoropentyl 2-Naphthyl Ketone] was 270 nM; that for `CCCCC(F)(F)C(=O)c1ccc2cc(OC)ccc2c1` [Compound 5, 1,1-Difluoropentyl 2-(6-Methoxy)naphthyl Ketone] was 380 nM.
Consider `CCCCCC(F)(F)C(=O)c1ccc2ccccc2c1` [Compound 6, 1,1-Difluorohexyl 2-Naphthyl Ketone], for which the Ki was found to be 80 nM. Also, the “CEase inhibition (in words)” value (summary of Table I Ki values) is given as “most potent inhibitor”.
In the case of `CCCC(=O)Oc1ccc([N+](=O)[O-])cc1` [PNPB, p-nitrophenylbutyrate, reference compound], where the note is “Michaelis constant used in equation 4”, the Km amounted to 90 µM.
